Laboratory results as given in paper PMC7531004, “Discovery of gramicidin A analogues with altered activities by multidimensional screening of a one-bead-one-compound library” (Nature Communications, 2020).
Where a SMILES comes first, the peptide text is derived from it. [ ]: non-standard residue; d: D form. The star is where a group is joined. NHCH2CH2OH = OCCN*; For = O=C*

How the values were obtained:
[1] = system: P388 mouse leukemia cells; conditions: 92 h
Procedure, shortened: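 Peptide stocks diluted 250× in growth medium; P388 cells 1 × 10^4 cells/mL final; 37 °C, 5% CO2, 92 h. WST-1 + 1-methoxy PMS, 4 h, A415. Output: % viability.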

[2] = system: Streptococcus pyogenes SSI-9; test: Antibacterial activity assay of bead-derived peptides (three concentrations); assay type: cell-based; set-up: key: +++: inhibition by the 640-fold diluted peptide solution; ++: inhibition by the 160-fold diluted solution; +: inhibition by the 40-fold diluted solution; -: no inhibition; conditions: S. pyogenes, bead-derived peptide solution, three concentrations
Procedure, shortened: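 First, each peptide stock was diluted 4- and 16-fold in DMSO; next, the three solutions were mixed with S. pyogenes SSI-9 suspension (2 × 10^5 CFU) in cation-adjusted Mueller Hinton Broth plus 5% laked horse blood; finally, plates stood 18 h at 37 °C before checking for grown-cell precipitation.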

[3] = H+/Na+ transport assay of bead-derived peptides (one-point); assay type: biochemical; set-up: key: relative activity; mean of two control wells = 1.00; conditions: bead-derived peptide solution, EYPC/EYPG LUVs;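 also: relative to parent gramicidin A activity set to 1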
Procedure, shortened: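 Miniaturized 96-well format. LUVs with entrapped pyranine (1.0 mM) were exposed to peptide for 30 min at RT. Intensities were expressed relative to full lysis by Triton X-100 and no treatment, with control-well mean = 1.00.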

Structure (SMILES) | cell viability/% [1] [%] | antibacterial activity [2] | H+/Na+ transport activity normalized against the value of 1 (1.00) [3]
CC(C)C[C@@H](NC(=O)[C@H](Cc1c[nH]c2ccccc12)NC(=O)[C@H](NC(=O)[C@H](Cc1c[nH]c2ccccc12)NC(=O)[C@H](NC(=O)[C@@H](NC(=O)[C@H](NC(=O)[C@H](C)NC(=O)[C@H](NC(=O)[C@H](C)NC(=O)CNC(=O)[C@@H](NC=O)C(C)C)[C@H](C)O)C(C)C)C(C)C)C(C)C)C(C)C)C(=O)N[C@@H](Cc1c[nH]c2ccccc12)C(=O)N[C@@H](C(=O)N[C@@H](Cc1c[nH]c2ccccc12)C(=O)NCCO)C(C)C [compound 5933] (For-VGA[dT]A[dV]V[dV]W[dV]W[dL]W[dV]W-NHCH2CH2OH) | 73.0 | - | 1.05
CC(C)C[C@@H](NC(=O)[C@H](C)NC(=O)CNC(=O)[C@@H](NC=O)C(C)C)C(=O)N[C@@H](C)C(=O)N[C@H](CC(C)C)C(=O)N[C@H](C(=O)N[C@H](CC(C)C)C(=O)N[C@@H](Cc1c[nH]c2ccccc12)C(=O)N[C@@H](C(=O)N[C@@H](Cc1c[nH]c2ccccc12)C(=O)N[C@@H](C(=O)N[C@@H](Cc1c[nH]c2ccccc12)C(=O)N[C@@H](C(=O)N[C@@H](Cc1c[nH]c2ccccc12)C(=O)NCCO)C(C)C)C(C)C)[C@H](C)O)C(C)C [compound 5996] (For-VGA[dL]A[dL]V[dL]W[dT]W[dV]W[dV]W-NHCH2CH2OH) | 78.7 | - | 1.08
CC(C)C[C@@H](NC(=O)[C@H](C)NC(=O)CNC(=O)[C@@H](NC=O)C(C)C)C(=O)N[C@@H](C)C(=O)N[C@H](CC(C)C)C(=O)N[C@H](C(=O)N[C@H](CC(C)C)C(=O)N[C@@H](Cc1c[nH]c2ccccc12)C(=O)N[C@@H](C(=O)N[C@@H](Cc1c[nH]c2ccccc12)C(=O)N[C@H](CC(C)C)C(=O)N[C@@H](Cc1c[nH]c2ccccc12)C(=O)N[C@@H](C(=O)N[C@@H](Cc1c[nH]c2ccccc12)C(=O)NCCO)C(C)C)C(C)C)C(C)C [compound 6096] (For-VGA[dL]A[dL]V[dL]W[dV]W[dL]W[dV]W-NHCH2CH2OH) | 7.3 | + | 1.16
CC(C)C[C@@H](NC(=O)[C@H](Cc1c[nH]c2ccccc12)NC(=O)[C@H](NC(=O)[C@H](Cc1c[nH]c2ccccc12)NC(=O)[C@@H](CC(C)C)NC(=O)[C@@H](NC(=O)[C@H](NC(=O)[C@H](C)NC(=O)[C@H](NC(=O)[C@H](C)NC(=O)CNC(=O)[C@@H](NC=O)C(C)C)[C@H](C)O)C(C)C)C(C)C)C(C)C)C(=O)N[C@@H](Cc1c[nH]c2ccccc12)C(=O)N[C@@H](C(=O)N[C@@H](Cc1c[nH]c2ccccc12)C(=O)NCCO)C(C)C [compound 6116] (For-VGA[dT]A[dV]V[dL]W[dV]W[dL]W[dV]W-NHCH2CH2OH) | 93.5 | - | 1.13
CC(C)C[C@@H](NC(=O)[C@H](Cc1c[nH]c2ccccc12)NC(=O)[C@H](NC(=O)[C@H](Cc1c[nH]c2ccccc12)NC(=O)[C@H](NC(=O)[C@@H](NC(=O)[C@H](NC(=O)[C@H](C)NC(=O)[C@H](NC(=O)[C@H](C)NC(=O)CNC(=O)[C@@H](NC=O)C(C)C)C(C)C)C(C)C)C(C)C)C(C)C)C(C)C)C(=O)N[C@@H](Cc1c[nH]c2ccccc12)C(=O)N[C@@H](C(=O)N[C@@H](Cc1c[nH]c2ccccc12)C(=O)NCCO)C(C)C [compound 6165] (For-VGA[dV]A[dV]V[dV]W[dV]W[dL]W[dV]W-NHCH2CH2OH) | 67.9 | - | 1.07
CC(C)C[C@@H](NC(=O)[C@H](C)NC(=O)CNC(=O)[C@@H](NC=O)C(C)C)C(=O)N[C@@H](C)C(=O)N[C@@H](C(=O)N[C@H](C(=O)N[C@@H](C(=O)N[C@@H](Cc1c[nH]c2ccccc12)C(=O)N[C@@H](C(=O)N[C@@H](Cc1c[nH]c2ccccc12)C(=O)N[C@H](CC(C)C)C(=O)N[C@@H](Cc1c[nH]c2ccccc12)C(=O)N[C@H](CC(C)C)C(=O)N[C@@H](Cc1c[nH]c2ccccc12)C(=O)NCCO)C(C)C)[C@H](C)O)C(C)C)C(C)C [compound 6225] (For-VGA[dL]A[dV]V[dT]W[dV]W[dL]W[dL]W-NHCH2CH2OH) | 80.8 | - | 1.10
CC(C)C[C@@H](NC(=O)[C@H](C)NC(=O)[C@H](NC(=O)[C@H](C)NC(=O)CNC(=O)[C@@H](NC=O)C(C)C)[C@H](C)O)C(=O)N[C@H](C(=O)N[C@H](CC(C)C)C(=O)N[C@@H](Cc1c[nH]c2ccccc12)C(=O)N[C@@H](C(=O)N[C@@H](Cc1c[nH]c2ccccc12)C(=O)N[C@H](CC(C)C)C(=O)N[C@@H](Cc1c[nH]c2ccccc12)C(=O)N[C@@H](C(=O)N[C@@H](Cc1c[nH]c2ccccc12)C(=O)NCCO)C(C)C)[C@H](C)O)C(C)C [compound 6248] (For-VGA[dT]A[dL]V[dL]W[dT]W[dL]W[dV]W-NHCH2CH2OH) | 87.7 | - | 1.10
CC(C)C[C@@H](NC(=O)[C@H](C)NC(=O)CNC(=O)[C@@H](NC=O)C(C)C)C(=O)N[C@@H](C)C(=O)N[C@@H](C(=O)N[C@H](C(=O)N[C@@H](C(=O)N[C@@H](Cc1c[nH]c2ccccc12)C(=O)N[C@H](CC(C)C)C(=O)N[C@@H](Cc1c[nH]c2ccccc12)C(=O)N[C@H](CC(C)C)C(=O)N[C@@H](Cc1c[nH]c2ccccc12)C(=O)N[C@H](CC(C)C)C(=O)N[C@@H](Cc1c[nH]c2ccccc12)C(=O)NCCO)C(C)C)C(C)C)C(C)C [compound 6292] (For-VGA[dL]A[dV]V[dV]W[dL]W[dL]W[dL]W-NHCH2CH2OH) | 5.4 | ++ | 1.25
CNC(=O)C[C@@H](NC(=O)[C@H](Cc1c[nH]c2ccccc12)NC(=O)[C@@H](CC(C)C)NC(=O)[C@H](Cc1c[nH]c2ccccc12)NC(=O)[C@H](NC(=O)[C@H](Cc1c[nH]c2ccccc12)NC(=O)[C@H](NC(=O)[C@@H](NC(=O)[C@@H](CC(C)C)NC(=O)[C@H](C)NC(=O)[C@H](NC(=O)[C@H](C)NC(=O)CNC(=O)[C@@H](NC=O)C(C)C)C(C)C)C(C)C)C(C)C)C(C)C)C(=O)N[C@@H](Cc1c[nH]c2ccccc12)C(=O)NCCO [compound 6329] (For-VGA[dV]A[dL]V[dV]W[dV]W[dL]W[dD](NHMe)W-NHCH2CH2OH) | 43.5 | - | 1.03
CNC(=O)C[C@@H](NC(=O)[C@@H](NC(=O)[C@@H](CC(C)C)NC(=O)[C@H](C)NC(=O)[C@H](NC(=O)[C@H](C)NC(=O)CNC(=O)[C@@H](NC=O)C(C)C)C(C)C)C(C)C)C(=O)N[C@@H](Cc1c[nH]c2ccccc12)C(=O)N[C@H](CC(C)C)C(=O)N[C@@H](Cc1c[nH]c2ccccc12)C(=O)N[C@H](CC(C)C)C(=O)N[C@@H](Cc1c[nH]c2ccccc12)C(=O)N[C@@H](C(=O)N[C@@H](Cc1c[nH]c2ccccc12)C(=O)NCCO)C(C)C [compound 6360] (For-VGA[dV]A[dL]V[dD](NHMe)W[dL]W[dL]W[dV]W-NHCH2CH2OH) | 67.2 | - | 1.03
CNC(=O)C[C@@H](NC(=O)[C@@H](NC(=O)[C@H](NC(=O)[C@H](C)NC(=O)[C@H](NC(=O)[C@H](C)NC(=O)CNC(=O)[C@@H](NC=O)C(C)C)C(C)C)C(C)C)C(C)C)C(=O)N[C@@H](Cc1c[nH]c2ccccc12)C(=O)N[C@H](CC(C)C)C(=O)N[C@@H](Cc1c[nH]c2ccccc12)C(=O)N[C@H](CC(C)C)C(=O)N[C@@H](Cc1c[nH]c2ccccc12)C(=O)N[C@@H](C(=O)N[C@@H](Cc1c[nH]c2ccccc12)C(=O)NCCO)C(C)C [compound 6510] (For-VGA[dV]A[dV]V[dD](NHMe)W[dL]W[dL]W[dV]W-NHCH2CH2OH) | 100.0 | - | 1.36
CNC(=O)C[C@@H](NC(=O)[C@H](Cc1c[nH]c2ccccc12)NC(=O)[C@H](NC(=O)[C@H](Cc1c[nH]c2ccccc12)NC(=O)[C@H](NC(=O)[C@H](Cc1c[nH]c2ccccc12)NC(=O)[C@@H](CC(C)C)NC(=O)[C@@H](NC(=O)[C@H](NC(=O)[C@H](C)NC(=O)[C@@H](CC(C)C)NC(=O)[C@H](C)NC(=O)CNC(=O)[C@@H](NC=O)C(C)C)C(C)C)C(C)C)C(C)C)C(C)C)C(=O)N[C@@H](Cc1c[nH]c2ccccc12)C(=O)NCCO [compound 6520] (For-VGA[dL]A[dV]V[dL]W[dV]W[dV]W[dD](NHMe)W-NHCH2CH2OH) | 100.0 | - | 1.08
CC(C)C[C@@H](NC(=O)[C@H](C)NC(=O)[C@H](NC(=O)[C@H](C)NC(=O)CNC(=O)[C@@H](NC=O)C(C)C)C(C)C)C(=O)N[C@H](C(=O)N[C@H](CC(C)C)C(=O)N[C@@H](Cc1c[nH]c2ccccc12)C(=O)N[C@@H](C(=O)N[C@@H](Cc1c[nH]c2ccccc12)C(=O)N[C@@H](C(=O)N[C@@H](Cc1c[nH]c2ccccc12)C(=O)N[C@H](CC(C)C)C(=O)N[C@@H](Cc1c[nH]c2ccccc12)C(=O)NCCO)C(C)C)[C@H](C)O)C(C)C [compound 6572] (For-VGA[dV]A[dL]V[dL]W[dT]W[dV]W[dL]W-NHCH2CH2OH) | 100.0 | - | 1.09
